# Experimental data taken from patent US10508120B2, “TYK2 inhibitors and uses thereof” (Nimbus Lakshmi, Inc., priority 2017, dated 2019).
# Where two headings read alike, the source gives them in different places.
# Key:
# [1] = biological target: human TYK2 (JH2domain-pseudokinase) (Homo sapiens (Human), UniProt P29597); assay: TYK2 JH2 Domain Binding Assay (KINOMEscan)
# Procedure, shortened: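 Kds, run in duplicate, came from Hill fits (slope fixed at −1) of an 11-point 3-fold dilution series starting at 30,000 nM. Bead-retained TYK2 JH2 (aa G556–D888)–NFkB DBD fusion, DNA-tagged and expressed in HEK293 cells, was read by qPCR after 1 h room-temperature binding in 0.9% DMSO.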
# Tyk2 kinase domain (DH1) = Tyk2 kinase domain (DH1) (Homo sapiens (Human), UniProt P29597); assay: Tyk2 Radioactive Kinase Assay; assay type: biochemical; details: read-out: Tyk2 JH1% Inhibition @ 10 μM
# Sequence of Tyk2 kinase domain (DH1) (P29597 897-1176): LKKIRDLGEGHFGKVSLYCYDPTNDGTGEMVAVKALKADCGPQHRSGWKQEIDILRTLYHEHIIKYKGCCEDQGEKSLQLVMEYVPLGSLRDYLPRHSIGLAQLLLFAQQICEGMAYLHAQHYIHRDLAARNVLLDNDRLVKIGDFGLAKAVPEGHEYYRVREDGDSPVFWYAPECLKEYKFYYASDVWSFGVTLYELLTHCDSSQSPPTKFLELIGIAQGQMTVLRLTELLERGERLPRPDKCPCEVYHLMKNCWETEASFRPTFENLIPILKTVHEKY
# Procedure, shortened: (§1)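 Single-point screen: 10 μM test compound, radioactive kinase read-out, percent inhibition reported for each kinase domain.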
# JAK2 kinase domain (JH1) = JAK2 kinase domain (JH1) (Homo sapiens (Human), UniProt O60674); assay: JAK2 Radioactive Kinase Assay; assay type: biochemical; details: read-out: JAK2 JH1% Inhibition @ 10 μM
# Sequence of JAK2 kinase domain (JH1) (O60674 849-1124): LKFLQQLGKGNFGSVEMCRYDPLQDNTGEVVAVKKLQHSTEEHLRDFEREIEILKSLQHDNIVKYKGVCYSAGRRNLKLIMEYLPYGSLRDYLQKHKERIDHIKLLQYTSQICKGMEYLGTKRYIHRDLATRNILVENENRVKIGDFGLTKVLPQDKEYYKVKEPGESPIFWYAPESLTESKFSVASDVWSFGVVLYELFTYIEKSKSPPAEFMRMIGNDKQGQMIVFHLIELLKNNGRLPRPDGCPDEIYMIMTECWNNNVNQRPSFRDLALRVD
# Procedure, shortened: as §1
# [2] = biological target: Tyk2/JAK2 (heterodimeric complex) (Homo sapiens (Human), UniProt P29597); assay: IL-12 Induced pSTAT4 in Human PBMC; assay type: cell-based; details: 1.7 ng/mL IL-12
# Sequence of Tyk2/JAK2 (heterodimeric complex) (P29597 whole entry, other chains not shown): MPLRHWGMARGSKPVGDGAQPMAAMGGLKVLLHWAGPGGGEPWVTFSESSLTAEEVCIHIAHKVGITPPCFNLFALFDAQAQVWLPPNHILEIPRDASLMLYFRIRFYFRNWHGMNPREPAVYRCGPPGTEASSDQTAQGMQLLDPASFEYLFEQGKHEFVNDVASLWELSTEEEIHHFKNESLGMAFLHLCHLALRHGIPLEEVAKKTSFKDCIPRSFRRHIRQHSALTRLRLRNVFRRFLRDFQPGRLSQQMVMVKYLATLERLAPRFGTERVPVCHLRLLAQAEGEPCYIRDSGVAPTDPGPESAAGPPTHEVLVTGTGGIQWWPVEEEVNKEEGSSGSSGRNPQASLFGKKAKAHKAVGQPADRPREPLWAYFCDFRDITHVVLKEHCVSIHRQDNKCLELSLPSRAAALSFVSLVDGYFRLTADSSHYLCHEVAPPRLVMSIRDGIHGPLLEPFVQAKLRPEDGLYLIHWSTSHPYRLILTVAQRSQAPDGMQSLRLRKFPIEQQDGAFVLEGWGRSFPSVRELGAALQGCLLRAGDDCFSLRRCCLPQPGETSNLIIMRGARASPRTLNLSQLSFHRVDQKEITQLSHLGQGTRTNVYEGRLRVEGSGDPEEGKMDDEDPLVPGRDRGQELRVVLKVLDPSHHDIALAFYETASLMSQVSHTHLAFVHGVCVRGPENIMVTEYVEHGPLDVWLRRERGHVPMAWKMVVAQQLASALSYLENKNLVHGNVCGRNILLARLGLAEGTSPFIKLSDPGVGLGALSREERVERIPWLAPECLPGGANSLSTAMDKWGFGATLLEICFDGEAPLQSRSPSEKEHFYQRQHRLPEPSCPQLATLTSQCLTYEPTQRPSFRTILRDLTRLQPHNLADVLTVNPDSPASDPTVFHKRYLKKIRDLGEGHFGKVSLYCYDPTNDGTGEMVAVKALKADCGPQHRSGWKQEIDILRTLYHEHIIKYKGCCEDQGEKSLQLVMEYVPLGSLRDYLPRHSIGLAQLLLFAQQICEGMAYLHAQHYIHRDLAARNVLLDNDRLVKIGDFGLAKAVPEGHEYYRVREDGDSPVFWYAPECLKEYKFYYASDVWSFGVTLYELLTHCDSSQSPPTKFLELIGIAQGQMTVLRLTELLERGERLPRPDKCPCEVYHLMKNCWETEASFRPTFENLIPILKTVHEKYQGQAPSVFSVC
# From the text: The IL-12 Induced pSTAT4 assay evaluates the inhibition of IL-12 induced STAT4 phophorylation mediated by Tyk2/JAK2 (heterodimeric complex).
# [3] = biological target: JAK2/JAK2 homdimeric complex (Homo sapiens (Human), UniProt O60674); assay: GM-CSF Induced pSTAT5 in Human PBMC; assay type: cell-based; details: GM-CSF 5 ng/mL for 20 minutes, pSTAT5 by MSD, read-out: PBMC_GMCSF_pSTAT5 IC50
# Sequence of JAK2/JAK2 homdimeric complex (O60674 whole entry, the tested form may be a part): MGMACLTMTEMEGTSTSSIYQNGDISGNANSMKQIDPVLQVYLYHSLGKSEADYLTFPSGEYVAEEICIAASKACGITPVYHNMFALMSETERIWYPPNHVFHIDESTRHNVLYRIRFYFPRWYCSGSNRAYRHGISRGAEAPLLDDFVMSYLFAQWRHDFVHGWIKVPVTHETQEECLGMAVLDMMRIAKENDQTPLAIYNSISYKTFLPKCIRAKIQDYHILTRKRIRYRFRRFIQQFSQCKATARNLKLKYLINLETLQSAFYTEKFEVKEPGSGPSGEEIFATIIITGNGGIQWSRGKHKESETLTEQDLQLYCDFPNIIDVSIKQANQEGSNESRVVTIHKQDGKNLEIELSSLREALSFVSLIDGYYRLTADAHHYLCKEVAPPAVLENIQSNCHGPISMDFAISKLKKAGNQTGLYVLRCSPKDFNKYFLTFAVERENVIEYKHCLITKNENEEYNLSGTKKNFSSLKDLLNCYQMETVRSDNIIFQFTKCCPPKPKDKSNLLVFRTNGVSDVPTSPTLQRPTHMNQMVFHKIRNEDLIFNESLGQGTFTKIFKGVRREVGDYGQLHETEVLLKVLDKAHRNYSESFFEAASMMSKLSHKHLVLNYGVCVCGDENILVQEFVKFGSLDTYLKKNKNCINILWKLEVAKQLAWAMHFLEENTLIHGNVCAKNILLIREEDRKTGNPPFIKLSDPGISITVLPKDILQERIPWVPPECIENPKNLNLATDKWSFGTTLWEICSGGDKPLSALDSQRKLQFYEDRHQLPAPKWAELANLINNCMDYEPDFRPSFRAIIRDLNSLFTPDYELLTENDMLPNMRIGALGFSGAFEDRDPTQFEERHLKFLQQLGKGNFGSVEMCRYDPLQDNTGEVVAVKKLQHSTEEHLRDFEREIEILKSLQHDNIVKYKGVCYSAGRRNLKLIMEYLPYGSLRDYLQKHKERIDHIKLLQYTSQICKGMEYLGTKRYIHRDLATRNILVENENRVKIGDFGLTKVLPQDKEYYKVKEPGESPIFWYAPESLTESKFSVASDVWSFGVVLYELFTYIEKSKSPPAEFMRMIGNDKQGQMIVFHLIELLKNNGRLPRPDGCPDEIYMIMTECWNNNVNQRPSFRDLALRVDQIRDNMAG
# Sequence of JAK2/JAK2 homdimeric complex (P32927 17-897 partner): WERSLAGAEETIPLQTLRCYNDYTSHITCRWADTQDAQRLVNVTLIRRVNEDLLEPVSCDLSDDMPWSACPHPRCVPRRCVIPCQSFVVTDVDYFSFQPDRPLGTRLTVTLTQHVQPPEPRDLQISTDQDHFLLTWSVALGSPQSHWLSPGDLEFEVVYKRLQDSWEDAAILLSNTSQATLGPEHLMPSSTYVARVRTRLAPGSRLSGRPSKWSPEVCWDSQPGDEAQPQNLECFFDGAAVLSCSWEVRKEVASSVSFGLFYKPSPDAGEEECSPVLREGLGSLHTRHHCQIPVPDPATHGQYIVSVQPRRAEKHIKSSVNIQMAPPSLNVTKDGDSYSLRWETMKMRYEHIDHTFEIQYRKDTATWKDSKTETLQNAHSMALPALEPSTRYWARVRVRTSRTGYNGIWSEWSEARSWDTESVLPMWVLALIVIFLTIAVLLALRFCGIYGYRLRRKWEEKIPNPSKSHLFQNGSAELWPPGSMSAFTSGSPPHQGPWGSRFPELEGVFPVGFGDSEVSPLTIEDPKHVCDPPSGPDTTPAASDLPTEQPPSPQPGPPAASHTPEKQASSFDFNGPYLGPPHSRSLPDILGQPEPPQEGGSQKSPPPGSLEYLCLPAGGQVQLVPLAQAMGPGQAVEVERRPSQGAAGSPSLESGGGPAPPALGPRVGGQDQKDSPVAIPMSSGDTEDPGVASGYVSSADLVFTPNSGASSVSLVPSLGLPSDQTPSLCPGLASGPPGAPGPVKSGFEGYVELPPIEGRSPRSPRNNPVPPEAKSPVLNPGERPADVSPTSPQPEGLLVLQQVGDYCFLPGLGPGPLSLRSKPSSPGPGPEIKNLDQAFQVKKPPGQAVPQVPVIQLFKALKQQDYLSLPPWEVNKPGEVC
# Sequence of human TYK2 (JH2domain-pseudokinase) (P29597 556-888): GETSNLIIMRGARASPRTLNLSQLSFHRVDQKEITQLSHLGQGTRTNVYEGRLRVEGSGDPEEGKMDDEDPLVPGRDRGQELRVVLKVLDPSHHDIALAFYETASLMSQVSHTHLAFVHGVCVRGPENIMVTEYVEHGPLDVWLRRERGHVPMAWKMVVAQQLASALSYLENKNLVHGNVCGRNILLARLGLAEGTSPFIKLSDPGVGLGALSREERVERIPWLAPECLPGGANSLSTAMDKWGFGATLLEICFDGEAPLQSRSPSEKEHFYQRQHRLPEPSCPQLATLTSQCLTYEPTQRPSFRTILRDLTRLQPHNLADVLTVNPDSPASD
Structure (SMILES),Kd [1],"inhibition at 10 µM (Tyk2 kinase domain (DH1); compound at 10 μM, ATP 10 μM)","inhibition at 10 µM (JAK2 kinase domain (JH1); compound at 10 μM, ATP 10 μM)",IC50 [2],IC50 [3],"inhibition at 10 µM (Tyk2 kinase domain (DH1); 10 μM compound, 10 μM ATP)","inhibition at 10 µM (JAK2 kinase domain (JH1); 10 μM compound, 10 μM ATP)"
"CNc1cc(Nc2cccn(-c3ncc(C)s3)c2=O)nc2c(C(=O)NC3CC3)cnn12 [I-261, N-cyclopropyl-7-(methylamino)-5-((1-(5-methylthiazol-2-yl)-2-oxo-1,2-dihydropyridin-3-yl)amino)pyrazolo[1,5-a]pyrimidine-3-carboxamide]",0.0002 to 0.001 µM,< 50%,< 50%,< 0.1 µM,> 2.5 µM,,
CNc1cc(Nc2cc(Cl)cn(-c3ccnc(C)n3)c2=O)nc2c(C(=O)N[C@H]3C[C@H]3F)cnn12 [I-317],< 0.0002 µM,< 50%,< 50%,< 0.1 µM,> 2.5 µM,,
CNc1cc(Nc2cccnc2OC(C)C)nc2c(C(N)=O)cnn12 [I-72],< 0.0002 µM,< 50%,< 50%,0.1 to 0.5 µM,> 12.5 µM,,
"CNc1cc(-c2cn(C(C)C)c3ncccc23)nc2c(C(=O)N[C@@H]3C[C@@H]3F)cnn12 (stereo in doubt) [I-225, N-((1R,2S)-2-fluorocyclopropyl)-5-(1-isopropyl-1H-pyrrolo[2,3-b]pyridin-3-yl)-7-(methylamino)pyrazolo[1,5-a]pyrimidine-3-carboxamide]",< 0.0002 µM,< 50%,< 50%,< 0.1 µM,> 50 µM,,
CNc1cc(Nc2cccn(-c3cc(C)n(C)n3)c2=O)nc2c(C(=O)N[C@H]3C[C@H]3F)cnn12 [I-137],< 0.0002 µM,< 50%,< 50%,< 0.1 µM,> 50 µM,,
"CNc1cc(Nc2cccn(-c3ccnc(C)n3)c2=O)nc2c(C(=O)N[C@@H]3C[C@@H]3F)cnn12 (stereo in doubt) [I-124, N-((1R,2S)-2-fluorocyclopropyl)-7-(methylamino)-5-((1-(2-methylpyrimidin-4-yl)-2-oxo-1,2-dihydropyridin-3-yl)amino)pyrazolo[1,5-a]pyrimidine-3-carboxamide]",< 0.0002 µM,< 50%,< 50%,< 0.1 µM,> 12.5 µM,,
CNc1cc(Nc2cccn(-c3nc(C)co3)c2=O)nc2c(C(=O)N[C@H]3C[C@H]3F)cnn12 [I-369],< 0.0002 µM,< 50%,< 50%,< 0.1 µM,> 50 µM,,
CNc1cc(Nc2cccn(-c3cnc(C(=O)N(C)C)cn3)c2=O)nc2c(C(=O)NC3CCC3)cnn12 [I-122],< 0.0002 µM,< 50%,< 50%,< 0.1 µM,> 2.5 µM,,
CNc1cc(Nc2cccn(C3CCCCC3)c2=O)nc2c(C(=O)N[C@H]3C[C@H]3F)cnn12 [I-305],< 0.0002 µM,< 50%,< 50%,< 0.1 µM,> 12.5 µM,,
CNc1cc(Nc2cccn(-c3ncc(C)s3)c2=O)nc2c(C(=O)NC3CCC3)cnn12 [I-263],< 0.0002 µM,< 50%,< 50%,< 0.1 µM,> 2.5 µM,,
CNc1cc(Nc2cccn(-c3ccc(F)cn3)c2=O)nc2c(C(=O)N[C@H]3C[C@H]3F)cnn12 [I-115],< 0.0002 µM,< 50%,< 50%,< 0.1 µM,> 12.5 µM,,
CNc1cc(Nc2cc(Cl)cn(-c3ccn(C4CC4)n3)c2=O)nc2c(C(=O)N[C@H]3C[C@H]3F)cnn12 [I-332],< 0.0002 µM,< 50%,< 50%,< 0.1 µM,> 2.5 µM,,
CNc1cc(Nc2cccnc2OC)nc2c(C(=O)N[C@H]3C[C@H]3F)cnn12 [I-110],< 0.0002 µM,< 50%,< 50%,< 0.1 µM,> 50 µM,,
CNc1cc(-c2cn(C(C)C)c3ncc(C)cc23)nc2c(C(N)=O)cnn12 [I-255],< 0.0002 µM,< 50%,< 50%,< 0.1 µM,> 50 µM,,
"[2H]C([2H])([2H])Nc1cc(Nc2cccnc2OC2CC2)nc2c(C(=O)N[C@@H]3C[C@@H]3F)cnn12 (stereo in doubt) [I-375, 5-((2-cyclopropoxypyridin-3-yl)amino)-N-((1R,2S)-2-fluorocyclopropyl)-7-((methyl-d3)amino)pyrazolo[1,5-a]pyrimidine-3-carboxamide]",< 0.0002 µM,< 50%,50 to 70%,< 0.1 µM,> 50 µM,,
CNc1cc(Nc2cccn([C@H]3CC[C@H](OC)CC3)c2=O)nc2c(C(=O)NC3CCC3)cnn12 [I-345],< 0.0002 µM,< 50%,< 50%,< 0.1 µM,> 50 µM,,
CNc1cc(Nc2cc(Cl)cn(-c3ccc(C4CC4)nn3)c2=O)nc2c(C(=O)N[C@H]3C[C@H]3F)cnn12 [I-334],< 0.0002 µM,< 50%,< 50%,< 0.1 µM,> 50 µM,,

# The next lines start with the values.
Kd [1],"inhibition at 10 µM (Tyk2 kinase domain (DH1); compound at 10 μM, ATP 10 μM)","inhibition at 10 µM (JAK2 kinase domain (JH1); compound at 10 μM, ATP 10 μM)",IC50 [2],IC50 [3],"inhibition at 10 µM (Tyk2 kinase domain (DH1); 10 μM compound, 10 μM ATP)","inhibition at 10 µM (JAK2 kinase domain (JH1); 10 μM compound, 10 μM ATP)",Structure (SMILES)
< 0.0002 µM,< 50%,< 50%,< 0.1 µM,> 50 µM,,,CNc1cc(Nc2cccnc2OC)nc2c(C(=O)NC[C@H](C)CO)cnn12 [I-483]
< 0.0002 µM,< 50%,< 50%,< 0.1 µM,> 50 µM,,,CNc1cc(Nc2cccnc2OC2CC2)nc2c(C(=O)NCC3(CO)CC3)cnn12 [I-426]
< 0.0002 µM,,,0.1 to 0.5 µM,> 50 µM,< 50%,< 50%,CNc1cc(Nc2cccn(C3CCN(CCF)CC3)c2=O)nc2c(C(=O)NCC(C)(C)CO)cnn12 [I-847]
< 0.0002 µM,< 50%,< 50%,< 0.1 µM,> 12.5 µM,,,CNc1cc(Nc2cc(F)cn(-c3cnn(C)c3)c2=O)nc2c(C(=O)NC3CC3)cnn12 [I-380]
< 0.0002 µM,< 50%,< 50%,< 0.1 µM,> 50 µM,,,"CNc1cc(Nc2cccn([C@H]3CC[C@](C)(OC)CC3)c2=O)nc2c(C(=O)N[C@@H]3CC[C@@H]3O)cnn12 [I-670, N-(2-hydroxycyclobutyl)-5-((1-((1R,4S)-4-methoxy-4-methylcyclohexyl)-2-oxo-1,2-dihydropyridin-3-yl)amino)-7-(methylamino)pyrazolo[1,5-a]pyrimidine-3-carboxamide]"
< 0.0002 µM,< 50%,< 50%,< 0.1 µM,> 2.5 µM,,,CNc1cc(Nc2cccn(-c3ncc(C)s3)c2=O)nc2c(C(=O)N[C@@H]3CC[C@@H]3O)cnn12 [I-677]
< 0.0002 µM,< 50%,< 50%,< 0.1 µM,> 50 µM,,,CNc1cc(Nc2cccn(-c3cn(C)nc3F)c2=O)nc2c(C(=O)N[C@H]3C[C@H]3F)cnn12 [I-607]
< 0.0002 µM,,,< 0.1 µM,> 50 µM,< 50%,< 50%,CNc1cc(Nc2cccn(C(C)C)c2=O)nc2c(C(=O)N[C@@H]3CC[C@H]3O)cnn12 [I-918]
